Test results as given in patent US20250213735A1, “NEUROPEPTIDE Y1 RECEPTOR (NPY1R) TARGETED THERAPEUTICS AND USES THEREOF” (Radionetics Oncology, Inc., priority 2023, published 2025).

The compounds below were run against hNPY1R (Homo sapiens (Human), UniProt P25929) (assay: NPY1R binding assay (SK-N-MC membrane, [125I]-Peptide YY competition)). Settings: crude SK-N-MC membranes endogenously expressing NPY1R; [125I]-Peptide YY (human) 0.05 nM; 120 min at room temperature; read-out: hNPY1R binding Ki.
hNPY1R, sequence (P25929 whole entry): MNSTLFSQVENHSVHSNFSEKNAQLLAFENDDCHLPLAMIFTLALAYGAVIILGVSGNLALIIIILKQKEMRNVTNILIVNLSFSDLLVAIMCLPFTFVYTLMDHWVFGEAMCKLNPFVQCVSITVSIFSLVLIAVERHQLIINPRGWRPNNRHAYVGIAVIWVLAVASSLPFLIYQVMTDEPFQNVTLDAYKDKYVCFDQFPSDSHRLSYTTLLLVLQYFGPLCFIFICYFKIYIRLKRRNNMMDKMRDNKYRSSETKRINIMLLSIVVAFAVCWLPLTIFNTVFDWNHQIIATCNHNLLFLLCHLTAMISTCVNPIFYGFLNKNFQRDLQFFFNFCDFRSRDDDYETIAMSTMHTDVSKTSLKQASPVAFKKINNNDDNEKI
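Note: bound radioligand separated by filtration over GF/C filter plates and counted, Ki obtained by non-linear regression.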

Compound	Ki [nM]
CCC(=O)NCCNC(=O)/N=C(/N)NCCC[C@@H](NC(=O)[C@H](c1ccc(OCCCNC(=O)CCOCCNC(=O)CN2CCN(CC(=O)O)CCN(CC(=O)O)CCN(CC(=O)O)CC2)cc1)N1Cc2ccccc2C1)C(=O)NCc1ccc(O)cc1 [compound 15, 2,2′,2″-(10-(2-((2-(3-((3-(4-((1S,4R,Z)-9-amino-4-((4-hydroxybenzyl)carbamoyl)-1-(isoindolin-2-yl)-2,11,16-trioxo-3,8,10,12,15-pentaazaoctadec-9-en-1-yl)phenoxy)propyl)amino)-3-oxopropoxy)ethyl)amino)-2-oxoethyl)-1,4,7,10-tetraazacyclododecane-1,4,7-triyl)triacetic acid]	< 10
CCC(=O)NCCNC(=O)/N=C(/N)NCCC[C@@H](NC(=O)[C@H](c1ccc(OCCCNC(=O)[C@@H](CC(N)=O)NC(=O)CCNC(=O)CN2CCN(CC(=O)O)CCN(CC(=O)O)CCN(CC(=O)O)CC2)cc1)N1Cc2ccccc2C1)C(=O)NCc1c(F)cc(O)cc1F [compound 50, 2,2′,2″-(10-(2-((3-(((R)-4-amino-1-((3-(4-((1S,4R,Z)-9-amino-4-((2,6-difluoro-4-hydroxybenzyl)carbamoyl)-1-(isoindolin-2-yl)-2,11,16-trioxo-3,8,10,12,15-pentaazaoctadec-9-en-1-yl)phenoxy)propyl)amino)-1,4-dioxobutan-2-yl)amino)-3-oxopropyl)amino)-2-oxoethyl)-1,4,7,10-tetraazacyclododecane-1,4,7-triyl)triacetic acid]	< 10
CCC(=O)NCCNC(=O)/N=C(/N)NCCC[C@@H](NC(=O)[C@H](c1ccc(OCCCNC(=O)CCC(=O)NCCOCCNC(=O)CN2CCN(CC(=O)O)CCN(CC(=O)O)CCN(CC(=O)O)CC2)cc1)N1Cc2ccccc2C1)C(=O)NCc1c(F)cc(O)cc1F [compound 43, 2,2′,2″-(10-(17-(4-((1S,4R,Z)-9-amino-4-((2,6-difluoro-4-hydroxybenzyl)carbamoyl)-1-(isoindolin-2-yl)-2,11,16-trioxo-3,8,10,12,15-pentaazaoctadec-9-en-1-yl)phenoxy)-2,10,13-trioxo-6-oxa-3,9,14-triazaheptadecyl)-1,4,7,10-tetraazacyclododecane-1,4,7-triyl)triacetic acid]	< 10
CC(C)CC1CCN(C(C(=O)N[C@H](CCCNC(=N)N)C(=O)NCc2ccc(O)cc2)c2ccccc2)CC1 (stereo partly drawn) [compound 82, (2R)-5-guanidino-N-(4-hydroxybenzyl)-2-(2-(4-isobutylpiperidin-1-yl)-2-phenylacetamido)pentanamide]	100 to 1000
CCC1CCN(C(C(=O)N[C@H](CCCNC(=N)N)C(=O)NCc2ccc(O)cc2)c2ccccc2)CC1 (stereo partly drawn) [compound 79, (2R)-2-(2-(4-ethylpiperidin-1-yl)-2-phenylacetamido)-5-guanidino-N-(4-hydroxybenzyl)pentanamide]	10 to 100
CCC(=O)NCCNC(=O)/N=C(/N)NCCC[C@@H](NC(=O)[C@@H](c1cccc(NC(=O)CCCNC(=O)CCCCCNC(=O)CN2CCN(CC(=O)O)CCN(CC(=O)O)CCN(CC(=O)O)CC2)c1)N1Cc2ccccc2C1)C(=O)NCc1ccc(O)cc1 [3B, 2,2′,2″-(10-(2-((6-((4-((3-((1R,4R,Z)-9-amino-4-((4-hydroxybenzyl)carbamoyl)-1-(isoindolin-2-yl)-2,11,16-trioxo-3,8,10,12,15-pentaazaoctadec-9-en-1-yl)phenyl)amino)-4-oxobutyl)amino)-6-oxohexyl)amino)-2-oxoethyl)-1,4,7,10-tetraazacyclododecane-1,4,7-triyl)triacetic acid]	< 10
CCC(=O)NCCNC(=O)/N=C(/N)NCCC[C@@H](NC(=O)[C@H](c1ccccc1)N1Cc2ccccc2C1)C(=O)NCc1ccc(O)cc1 [60A, (R)—N-(4-hydroxybenzyl)-2-((S)-2-(isoindolin-2-yl)-2-phenylacetamido)-5-((Z)-2-((2-propionamidoethyl)carbamoyl)guanidino)pentanamide]	< 10
CCC(=O)NCCNC(=O)/N=C(/N)NCCC[C@@H](NC(=O)[C@H](c1ccc(OCCCNC(=O)CONC(=O)CCNC(=O)CN2CCN(CC(=O)O)CCN(CC(=O)O)CCN(CC(=O)O)CC2)cc1)N1Cc2ccccc2C1)C(=O)NCc1c(F)cc(O)cc1F [compound 44, 2,2′,2″-(10-(14-(4-((1S,4R,Z)-9-amino-4-((2,6-difluoro-4-hydroxybenzyl)carbamoyl)-1-(isoindolin-2-yl)-2,11,16-trioxo-3,8,10,12,15-pentaazaoctadec-9-en-1-yl)phenoxy)-2,6,10-trioxo-8-oxa-3,7,11-triazatetradecyl)-1,4,7,10-tetraazacyclododecane-1,4,7-triyl)triacetic acid]	< 10
CCNC(=O)/N=C(/N)NCCC[C@@H](NC(=O)[C@H](c1ccccc1)N1Cc2ccc(NCCCN)cc2C1)C(=O)NCc1c(F)cc(O)cc1F [65A, (R)-2-((S)-2-(5-((3-aminopropyl)amino)isoindolin-2-yl)-2-phenylacetamido)-N-(2,6-difluoro-4-hydroxybenzyl)-5-((Z)-2-(ethylcarbamoyl)guanidino)pentanamide]	< 10
CCC(=O)NCCNC(=O)/N=C(/N)NCCC[C@@H](NC(=O)[C@H](c1cccc(NCCCNC(=O)CCOCCNC(=O)CN2CCN(CC(=O)O)CCN(CC(=O)O)CCN(CC(=O)O)CC2)c1)N1Cc2ccccc2C1)C(=O)NCc1ccc(O)cc1 [compound 20, 2,2′,2″-(10-(2-((2-(3-((3-((3-((1S,4R,Z)-9-amino-4-((4-hydroxybenzyl)carbamoyl)-1-(isoindolin-2-yl)-2,11,16-trioxo-3,8,10,12,15-pentaazaoctadec-9-en-1-yl)phenyl)amino)propyl)amino)-3-oxopropoxy)ethyl)amino)-2-oxoethyl)-1,4,7,10-tetraazacyclododecane-1,4,7-triyl)triacetic acid]	< 10
CCC(=O)NCCNC(=O)/N=C(/N)NCCC[C@@H](NC(=O)C(c1ccccc1)N1Cc2ccccc2C1)C(=O)NCc1ccc(O)cc1 (stereo partly drawn) [compound 60, (2R)—N-(4-hydroxybenzyl)-2-(2-(isoindolin-2-yl)-2-phenylacetamido)-5-((Z)-2-((2-propionamidoethyl)carbamoyl)guanidino)pentanamide]	< 10
CCC(=O)NCCNC(=O)/N=C(/N)NCCC[C@@H](NC(=O)[C@H](c1ccccc1)N1Cc2cccc(NCCCNc3c(NCCCCCCNC(=O)CN4CCN(CC(=O)O)CCN(CC(=O)O)CCN(CC(=O)O)CC4)c(=O)c3=O)c2C1)C(=O)NCc1c(F)cc(O)cc1F [compound 34, 2,2′,2″-(10-(2-((6-((2-((3-((2-((1S,4R,Z)-9-amino-4-((2,6-difluoro-4-hydroxybenzyl)carbamoyl)-2,11,16-trioxo-1-phenyl-3,8,10,12,15-pentaazaoctadec-9-en-1-yl)isoindolin-4-yl)amino)propyl)amino)-3,4-dioxocyclobut-1-en-1-yl)amino)hexyl)amino)-2-oxoethyl)-1,4,7,10-tetraazacyclododecane-1,4,7-triyl)triacetic acid]	< 10
CCC(=O)NCCNC(=O)/N=C(/N)NCCC[C@@H](NC(=O)[C@H](c1cccc(NCCCNC(=O)CCCCCNC(=O)CN2CCN(CC(=O)O)CCN(CC(=O)O)CCN(CC(=O)O)CC2)c1)N1Cc2ccccc2C1)C(=O)NCc1ccc(O)cc1 [compound 19, 2,2′,2″-(10-(2-((6-((3-((3-((1S,4R,Z)-9-amino-4-((4-hydroxybenzyl)carbamoyl)-1-(isoindolin-2-yl)-2,11,16-trioxo-3,8,10,12,15-pentaazaoctadec-9-en-1-yl)phenyl)amino)propyl)amino)-6-oxohexyl)amino)-2-oxoethyl)-1,4,7,10-tetraazacyclododecane-1,4,7-triyl)triacetic acid]	< 10
